The nature of data set [1]: Cleavage experiments in FaSSIF medium simulating the intestinal tract. Conditions: in the presence or absence of pancreatin. Type of data set: in vitro ADME. From the text:
(§1) By means of cleavage experiments it is shown that reaction products prepared according to the invention or mixtures thereof can be cleaved in the human gastrointestinal tract. The starting mixture used is, on the one hand, a 3-acetoxybutyric acid ethyl ester obtained and purified by the process according to the invention as described hereinabove and, on the other hand, in each case the 3-BHB ethyl esters capped in the 3-position with the carboxylic acid anhydride (heptanoic acid anhydride, lauric acid anhydride or oleic acid anhydride) obtained and purified by the process according to the invention as described hereinabove.
(§2) For the cleavage experiments under near-body conditions two media are investigated: • FaSSGF, which simulates the stomach • FaSSIF, which simulates the intestinal tract
(§3) Both media are from the company Biorelevant®, Ltd. in Great Britain. In addition, in some experiments porcine pancreas is added (Panzytrat® 40,000, Fa. Allergan).
(§4) Under FaSSIF conditions, a lower conversion using Panzytrat® takes place.

The nature of data set [2]: Cleavage experiments in FaSSGF medium simulating the stomach. Type of data set: in vitro ADME. The settings on record: in the presence or absence of pancreatin.
Description: as §1, §2, §3, §4

The conditions of data set [3]: even if several grams are taken; patients; cited from earlier work.

On to `CCOC(=O)CC(C)OC(C)=O` (stereo not drawn) [3-acetoxybutyric acid ethyl ester], for which the “cleavage in intestinal medium” value in data set [1] is recorded as “cleavage to 3-BHB in free form”. Further, in data set [2], the “cleavage in gastric medium” value is “cleavage to 3-BHB in free form”.
For `CC(O)CC(=O)O` (stereo not drawn) [3-hydroxybutyric acid], the duration of ketosis result in data set [3] is recorded as “three to four”.
